ChEMBL document CHEMBL1201862, “PubChem BioAssay data set” (2004)
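Dose response: 5 concentrations. Exposure: 48 h. Format: 96-well plates. Endpoint: linear interpolation; highest concentration if not reached. The concentration for 50% growth inhibition is given as GI50.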 Calls of active or inactive are those of the source. Cut-off read from the data, not from the text of the source: active = GI50 up to about 1.1 µM and inactive = higher.

Key:
Assay in all cases: NCI anticancer screen, dose series, 48 h
786-0 = tested on: 786-0
SK-MEL-28 = tested on: SK-MEL-28
Hs-578T = tested on: Hs-578T
Malme-3M = tested on: Malme-3M
LOX IMVI = tested on: LOX IMVI
CAKI-1 = tested on: CAKI-1
MCF7 = tested on: MCF7
KM12 = tested on: KM12
DU-145 = tested on: DU-145
OVCAR-3 = tested on: OVCAR-3
SNB-19 = tested on: SNB-19
SNB-75 = tested on: SNB-75
A498 = tested on: A498
T47D = tested on: T47D
TK-10 = tested on: TK-10
OVCAR-4 = tested on: OVCAR-4
NCI-H522 = tested on: NCI-H522
SK-OV-3 = tested on: SK-OV-3
UACC-257 = tested on: UACC-257
HCC 2998 = tested on: HCC 2998

Measured: GI50

O=C(O)CNC(=O)c1ccc([As](=O)(O)O)cc1
inactive: 786-0 > 100 µM | SK-MEL-28 > 100 µM | Hs-578T > 100 µM | Malme-3M > 100 µM | LOX IMVI > 100 µM | CAKI-1 > 100 µM | MCF7 > 100 µM | KM12 > 100 µM | DU-145 > 100 µM | OVCAR-3 > 100 µM | SNB-19 > 100 µM | SNB-75 > 100 µM | A498 > 100 µM | T47D > 100 µM | TK-10 > 100 µM | OVCAR-4 > 100 µM | NCI-H522 > 100 µM | SK-OV-3 > 100 µM

N=C(N)NS(=O)(=O)c1ccc(Nc2c3ccccc3nc3ccc(C(=O)Nc4ccc(S(N)(=O)=O)cc4)cc23)cc1
inactive: UACC-257 > 100 µM | 786-0 > 100 µM | SK-MEL-28 > 100 µM | Hs-578T > 100 µM | Malme-3M > 100 µM | LOX IMVI > 100 µM | CAKI-1 > 100 µM | MCF7 > 100 µM | KM12 > 100 µM | DU-145 > 100 µM | OVCAR-3 > 100 µM | SNB-19 > 100 µM | SNB-75 > 100 µM | T47D > 100 µM | TK-10 > 100 µM | OVCAR-4 > 100 µM | HCC 2998 > 100 µM | NCI-H522 > 100 µM | SK-OV-3 > 100 µM

CC1OC23CCCCC2C(C#N)(C#N)C1(C#N)C(=N)O3 (stereo unspecified)
inactive: UACC-257 18 µM | 786-0 12.8 µM | SK-MEL-28 21.7 µM | Hs-578T 21.8 µM | Malme-3M 20.4 µM | LOX IMVI 17.6 µM | CAKI-1 6.9 µM | MCF7 20.7 µM | KM12 24.3 µM | DU-145 24.3 µM | OVCAR-3 17.7 µM | SNB-19 22.8 µM | SNB-75 38.3 µM | A498 27.2 µM | T47D 18.7 µM | TK-10 22.5 µM | HCC 2998 25.5 µM | SK-OV-3 > 100 µM

CCOP(=O)(OCC)OC1CC(n2cc(C)c(=O)n(C)c2=O)OC1CO[Si](C)(C)C(C)(C)C (stereo unspecified)
inactive: UACC-257 > 100 µM | 786-0 > 100 µM | SK-MEL-28 > 100 µM | Hs-578T 46.6 µM | Malme-3M > 100 µM | LOX IMVI > 100 µM | CAKI-1 > 100 µM | MCF7 73.1 µM | KM12 75.2 µM | DU-145 > 100 µM | OVCAR-3 > 100 µM | SNB-19 > 100 µM | SNB-75 75.9 µM | T47D 17.8 µM | TK-10 > 100 µM | OVCAR-4 > 100 µM | HCC 2998 62.4 µM | NCI-H522 32.1 µM | SK-OV-3 > 100 µM

COc1cc(NS(C)(=O)=O)ccc1Nc1ccnc2ccc3[nH]ccc3c12
inactive: UACC-257 18.2 µM | 786-0 14.6 µM | SK-MEL-28 16.6 µM | Hs-578T 21.3 µM | Malme-3M 14.1 µM | LOX IMVI 15.2 µM | CAKI-1 17.3 µM | MCF7 15.6 µM | KM12 13.8 µM | DU-145 14.4 µM | OVCAR-3 15.3 µM | SNB-19 15.5 µM | A498 16.8 µM | T47D 14.9 µM | TK-10 16.3 µM | OVCAR-4 14.3 µM | NCI-H522 5.6 µM

Cc1ccc(O)c(C2=NNC(c3cccc(Br)c3)C2)c1 (stereo unspecified)
inactive: UACC-257 48.9 µM | 786-0 > 100 µM | Hs-578T 37.3 µM | Malme-3M > 100 µM | LOX IMVI 38.3 µM | CAKI-1 27.9 µM | MCF7 33.8 µM | KM12 63.4 µM | DU-145 81.3 µM | OVCAR-3 62.2 µM | SNB-19 23 µM | T47D 35.6 µM | TK-10 > 100 µM | HCC 2998 60.8 µM | NCI-H522 28.5 µM | SK-OV-3 34.3 µM

CC(C)(C)c1cc(C(O)(C(=O)O)C(=O)O)cc(C(C)(C)C)c1O
inactive: UACC-257 > 100 µM | 786-0 > 100 µM | SK-MEL-28 > 100 µM | Hs-578T > 100 µM | Malme-3M > 100 µM | LOX IMVI > 100 µM | CAKI-1 > 100 µM | MCF7 > 100 µM | KM12 > 100 µM | DU-145 > 100 µM | OVCAR-3 > 100 µM | SNB-19 > 100 µM | SNB-75 > 100 µM | A498 > 100 µM | T47D > 100 µM | TK-10 > 100 µM | OVCAR-4 > 100 µM | NCI-H522 > 100 µM | SK-OV-3 > 100 µM

CC1(C)C/N=C/C(C)(OCc2ccccc2)C(=O)NC(C)(C)C/N=C/C(C)(OCc2ccccc2)C(=O)N1 (stereo unspecified)
inactive: UACC-257 > 10 µM | 786-0 > 10 µM | SK-MEL-28 > 10 µM | Hs-578T > 10 µM | LOX IMVI > 10 µM | MCF7 > 10 µM | KM12 > 10 µM | DU-145 > 10 µM | OVCAR-3 > 10 µM | SNB-19 > 10 µM | SNB-75 3.82 µM | A498 > 10 µM | T47D > 10 µM | TK-10 > 10 µM | HCC 2998 > 10 µM | SK-OV-3 > 10 µM

CC(C)=C[C@@H]1C[C@H](n2cc(C)c(=O)[nH]c2=O)ON1CCO
inactive: UACC-257 > 100 µM | 786-0 > 100 µM | SK-MEL-28 > 100 µM | Hs-578T > 100 µM | Malme-3M > 100 µM | LOX IMVI > 100 µM | CAKI-1 > 100 µM | MCF7 > 100 µM | KM12 > 100 µM | DU-145 > 100 µM | OVCAR-3 > 100 µM | SNB-19 > 100 µM | SNB-75 > 100 µM | A498 > 100 µM | T47D > 100 µM | TK-10 > 100 µM | OVCAR-4 > 100 µM | NCI-H522 > 100 µM | SK-OV-3 > 100 µM

S=C1N(/N=C/c2c3ccccc3cc3ccccc23)C(=N\c2ccccc2)/C(=N/c2ccccc2)N1c1ccccc1
inactive: UACC-257 > 100 µM | 786-0 > 100 µM | SK-MEL-28 > 100 µM | Hs-578T > 100 µM | Malme-3M > 100 µM | CAKI-1 > 100 µM | MCF7 > 100 µM | KM12 > 100 µM | DU-145 > 100 µM | OVCAR-3 > 100 µM | SNB-19 > 100 µM | T47D > 100 µM | TK-10 > 100 µM | HCC 2998 > 100 µM | NCI-H522 > 100 µM | SK-OV-3 > 100 µM

COc1ccccc1C1Nn2c(nc3ccccc3c2=O)N1c1ccc(C)cc1 (stereo unspecified)
inactive: UACC-257 16.3 µM | 786-0 2.67 µM | SK-MEL-28 5.94 µM | Hs-578T 10 µM | Malme-3M 14.4 µM | LOX IMVI 7.62 µM | CAKI-1 7.83 µM | MCF7 6.49 µM | KM12 11.2 µM | DU-145 11 µM | OVCAR-3 4.65 µM | SNB-19 6.59 µM | SNB-75 14.9 µM | T47D 4.82 µM | TK-10 6.41 µM | OVCAR-4 3.08 µM | HCC 2998 3.8 µM | NCI-H522 7.8 µM | SK-OV-3 3.72 µM
